Assay results from PMC9217908, “Screening of commonly prescribed drugs for effects on the CAT1-mediated transport of L-arginine and arginine derivatives” (Amino Acids, 2022).
Like-named read-outs stand apart in the source and are kept apart here.

Legend:
Experiment in all cases: cell-based
[1] = target: T1, CAT1 (cationic amino acid transporter 1, CAT1/SLC7A1) (Homo sapiens, UniProt P30825); parameters: species or system HEK-CAT1 (HEK293 stably transfected); Inhibition of net CAT1-mediated [3H]-L-arginine (100 uM) uptake, 5 min, scintillation counting, vector control subtracted; conditions: HEK293, L-arginine 100 uM as substrate; for inhibition at 20 µM: read-out: % Inhibition of L-arginine uptake at 20 µM; for inhibition at 200 µM: read-out: % Inhibition of L-arginine uptake at 200 µM
T1 construct: full-length human transporter stably transfected in HEK cells (HEK-CAT1); net uptake against HEK-VC vector control cells
T1 sequence (P30825 whole entry): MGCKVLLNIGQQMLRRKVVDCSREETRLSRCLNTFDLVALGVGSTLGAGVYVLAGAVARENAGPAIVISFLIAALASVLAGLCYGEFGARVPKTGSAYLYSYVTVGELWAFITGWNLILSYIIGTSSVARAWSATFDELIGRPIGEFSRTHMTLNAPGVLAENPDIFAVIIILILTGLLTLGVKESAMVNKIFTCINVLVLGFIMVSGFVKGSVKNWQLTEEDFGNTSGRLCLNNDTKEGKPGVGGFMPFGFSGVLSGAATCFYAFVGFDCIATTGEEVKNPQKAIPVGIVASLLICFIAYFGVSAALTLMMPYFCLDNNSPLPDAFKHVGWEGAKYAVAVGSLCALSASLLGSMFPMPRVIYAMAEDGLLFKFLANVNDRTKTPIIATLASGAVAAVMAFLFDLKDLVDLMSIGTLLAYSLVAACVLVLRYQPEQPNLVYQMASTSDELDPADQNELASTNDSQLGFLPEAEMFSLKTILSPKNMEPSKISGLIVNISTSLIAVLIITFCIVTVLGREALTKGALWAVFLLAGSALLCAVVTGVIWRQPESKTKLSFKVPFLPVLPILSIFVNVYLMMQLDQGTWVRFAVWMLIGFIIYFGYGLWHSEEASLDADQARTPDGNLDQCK
Description: (§1) Uptake and inhibition assays using HEK-CAT1 and HEK-VC cells and L-arginine, L-homoarginine, and ADMA as substrates were performed using the protocol described (Strobel et al. [2012]; Chafai et al. [2017]). Briefly, after incubation, the supernatant was replaced with transport buffer containing [^3H]- L-arginine for 5 min and 2.5 min for medium containing [^3H]-L-homoarginine or [^3H]-ADMA with or without the test compound. The reference drugs were screened at concentrations of 20 µM (Figs. 1A, 2A, and 3A) and 200 µM (Figs. 1B, 2B, and 3B). […] The net uptake was determined by subtracting the total amount taken up by control cells from the amount taken up by CAT1-expressing cells, which was expressed as a percentage of the amount taken up by the control. To determine the inhibitory effects of the drugs on CAT1-mediated transport of L-arginine, L-homoarginine, or ADMA, the control was measured in the absence of the potential inhibitor. The value for the percent inhibition was calculated as: Inhibition (%) = 100 – (V/V0 ^* 100), where V and V0 are the net uptake rates (uptake into HEK-CAT1 cells—uptake into HEK-VC cells) with and without test drugs, respectively. […] Each bar represents the effect of one compound on CAT1-mediated L-arginine (100 μM) uptake as percent inhibition. Data were obtained from at least two independent experiments performed in triplicate (n = 6–9) and each test data from the independent experiment were normalized to the respective control data to get the value of percent inhibition. Negative inhibition values indicate stimulated CAT1-mediated uptake. Data were analyzed using one-way ANOVA and Dunnett’s multiple comparison test with p < 0.05. Bars showing a statistically significant inhibition or transport stimulation are shaded in black

[2] = target: T1, CAT1 (cationic amino acid transporter 1, CAT1/SLC7A1); parameters: species or system HEK-CAT1 (HEK293 stably transfected); Inhibition of net CAT1-mediated [3H]-L-homoarginine (1 uM) uptake, 2.5 min, scintillation counting, vector control subtracted; conditions: HEK293, L-homoarginine 1 uM as substrate; for inhibition at 20 µM: read-out: % Inhibition of L-homoarginine uptake at 20 µM; for inhibition at 200 µM: read-out: % Inhibition of L-homoarginine uptake at 200 µM
Description: as §1, with “L-homoarginine (1” for “L-arginine (100”

[3] = target: T1, CAT1 (cationic amino acid transporter 1, CAT1/SLC7A1); parameters: species or system HEK-CAT1 (HEK293 stably transfected); Inhibition of net CAT1-mediated [3H]-ADMA (1 uM) uptake, 2.5 min, scintillation counting, vector control subtracted; conditions: HEK293, ADMA 1 uM as substrate; for inhibition at 20 µM: read-out: % Inhibition of ADMA uptake at 20 µM; for inhibition at 200 µM: read-out: % Inhibition of ADMA uptake at 200 µM
Description: as §1, with “ADMA (1” for “L-arginine (100”

SMILES | inhibition at 20 µM [1] [%] | inhibition at 200 µM [1] [%] | inhibition at 20 µM [2] [%] | inhibition at 200 µM [2] [%] | inhibition at 20 µM [3] [%] | inhibition at 200 µM [3] [%]
CCCC1O[C@@H]2C[C@H]3[C@@H]4CCC5=CC(=O)C=C[C@]5(C)[C@H]4[C@@H](O)C[C@]3(C)[C@]2(C(=O)CO)O1 (stereo partly drawn) [Budesonide] | -9.7 ± 7.8 | -6.4 ± 3.9 | -9.7 ± 5.5 | -4.9 ± 6.5 | -13.2 ± 3.7 | -47.7 ± 6.5
CCCCNc1cc(C(=O)O)cc(S(N)(=O)=O)c1Oc1ccccc1 [Bumetanide] | 9 ± 4 | -10.1 ± 1.7 | 8.9 ± 4.1 | -8.6 ± 1.9 | -2.8 ± 6.2 | -9.7 ± 5.6
CCOc1nc2cccc(C(=O)O)c2n1Cc1ccc(-c2ccccc2-c2nnn[nH]2)cc1 [Candesartan] | 14.5 ± 2.4 | -18.8 ± 2.4 | 12.6 ± 2.2 | -12.6 ± 3.8 | -11.1 ± 0.9 | 8.1 ± 3.1
C[C@H](CS)C(=O)N1CCC[C@H]1C(=O)O [Captopril] | 0.6 ± 4.7 | -15.1 ± 13.1 | 0.1 ± 4.5 | -15.9 ± 3 | 0.5 ± 2.1 | -19.6 ± 2.2
NC(=O)N1c2ccccc2C=Cc2ccccc21 [Carbamazepine] | 17.8 ± 4.1 | 0.7 ± 4.3 | 18.9 ± 3.5 | 12.7 ± 3.9 | 4.8 ± 2.1 | 12.8 ± 4.2
COc1ccccc1OCCNCC(O)COc1cccc2[nH]c3ccccc3c12 (stereo not drawn) [Carvedilol] | -14.1 ± 1.5 | 0.2 ± 3.5 | -11.2 ± 0.9 | -1.4 ± 7.7 | -1.1 ± 3.1 | -7.8 ± 7.1
CO/N=C(\C(=O)N[C@@H]1C(=O)N2C(C(=O)O)=C(COC(N)=O)CS[C@H]12)c1ccco1 [Cefuroxime] | 17.3 ± 3.5 | -9.8 ± 8.4 | 16.8 ± 1.6 | -8.5 ± 5.9 | -7.1 ± 2.9 | -11.5 ± 2.8
O=C(O)CCCc1ccc(N(CCCl)CCCl)cc1 [Chlorambucil] | -23.3 ± 3.8 | -43.3 ± 6.5 | -18.6 ± 1.4 | -41.6 ± 6.4 | -5.1 ± 2.8 | 13.9 ± 4.4
CCN(CC)CCCC(C)Nc1ccnc2cc(Cl)ccc12 (stereo not drawn) [Chloroquine] | -6.1 ± 1.1 | -11.4 ± 2.6 | -35.1 ± 5.2 | -54.8 ± 6.9 | -27 ± 16.2 | -23.1 ± 8.2
CN/C(=N\CCSCc1nc[nH]c1C)NC#N [Cimetidine] | 0.2 ± 7.2 | -65.4 ± 5.8 | 21.9 ± 3 | -31.2 ± 1.3 | 21.9 ± 3.1 | 1.1 ± 2.5
CN(C)CCCC1(c2ccc(F)cc2)OCc2cc(C#N)ccc21 (stereo not drawn) [Citalopram] | -16.7 ± 9.2 | 42.8 ± 4.1 | 8.8 ± 3.3 | 29.6 ± 3.1 | 8.8 ± 3.3 | -15.6 ± 8.1
CC[C@H]1OC(=O)[C@H](C)[C@@H](O[C@H]2C[C@@](C)(OC)[C@@H](O)[C@H](C)O2)[C@H](C)[C@@H](O[C@@H]2O[C@H](C)C[C@H](N(C)C)[C@H]2O)[C@](C)(OC)C[C@@H](C)C(=O)[C@H](C)[C@@H](O)[C@]1(C)O [Clarithromycin] | -16.8 ± 2.1 | -14.3 ± 6.2 | -2.4 ± 2.1 | -13.6 ± 3.3 | -3.9 ± 5.3 | -72.9 ± 1.6
CN(C)CCCN1c2ccccc2CCc2ccc(Cl)cc21 [Clomipramine] | -4.1 ± 0.9 | -12.8 ± 4.8 | -4.5 ± 0.7 | -12.2 ± 3.9 | 18 ± 3.1 | 14 ± 1.9
C[C@@H]1CCC[C@H](C)N1NC(=O)c1ccc(Cl)c(S(N)(=O)=O)c1 [Clopamide] | 4.5 ± 1.9 | 23.4 ± 2.5 | -14.3 ± 2.1 | 14.3 ± 2.2 | -11.1 ± 2.3 | 11.6 ± 6.5
